Results: patent US20100206809A1, “METHOD AND APPARATUS FOR TREATING ORGANIC MATTER-CONTAINING WATER” (KURITA WATER INDUSTRIES LTD., priority 2007, published 2010)
Values belong to the compound of their own block, whether it stands above or below them.

Legend:
[1] = Daily change in flux through the RO membrane separator
Experimental: The water that had been subjected to the coagulation-filtration treatment was passed through a fixed-bed activated carbon column at an SV of 20 hr^−1 and then a softening column at an SV of 15 hr^−1. Next, an EDTA-based scale inhibitor (Welclean A801, manufactured by Kurita Water Industries Ltd.) was added in an amount of 10 mg/L (five times the weight of the concentration of calcium ions in softening column-treated water). […] Then the water was passed through an RO membrane separator (with an aromatic-polyamide ultra-low-pressure RO membrane “ES-20”, manufactured by Nitto Denko Corporation) at a permeate flow of 60 L/hr and a recovery rate of 80% to perform RO membrane separation treatment.
Treatment was performed under the same conditions as those in Example 10, except that the pH of the softening column-treated water was adjusted in such a manner that the pH of the RO feed water was 6 (Reference Example 1) or 8.5 (Reference Example 2).
In Example 10, Comparative Example 2, and Reference Examples 1 and 2, daily changes in flux through the RO membrane separator were measured.

viable cells [2] = experiment: Viable cell counts at measuring points, industrial water treatment (FIG. 1 embodiment)
Experimental: The water that had been subjected to the coagulation-filtration treatment was passed through an activated carbon column at an SV of 20 hr^−1. Then the water was passed through an RO membrane separator (with an aromatic-polyamide ultra-low-pressure RO membrane “ES-20”, manufactured by Nitto Denko Corporation) at a permeate flow of 60 L/hr and a recovery rate of 80%.
In Example 1 and Comparative Example 1, viable cell counts were measured at several points.
In Examples 2 to 5, concentrations of combined chlorine in activated carbon feed water (water fed into the activated carbon column) and activated carbon-treated water (water from the activated carbon column) were measured, and viable cell counts in the activated carbon-treated water were measured.
In Examples 6 to 9, concentrations of combined chlorine and viable cell counts in the activated carbon-treated water were measured.

viable cells [3] = experiment: Viable cell counts at measuring points, nonionic surfactant-containing wastewater treatment (FIG. 2 embodiment)
Experimental: […] Next, an EDTA-based scale inhibitor (Welclean A801, manufactured by Kurita Water Industries Ltd.) was added in an amount of 10 mg/L (five times the weight of the concentration of calcium ions in softening column-treated water). NaOH was added to adjust the pH to 10.5. Then the water was passed through an RO membrane separator (with an aromatic-polyamide ultra-low-pressure RO membrane “ES-20”, manufactured by Nitto Denko Corporation) at a permeate flow of 60 L/hr and a recovery rate of 80% to perform RO membrane separation treatment.
In Example 10 and Comparative Example 2, viable cell counts were measured at several points.
In Examples 11 to 14, viable cell counts in the activated carbon-treated water and the softened water were measured.
In Examples 15 to 18, viable cell counts in the activated carbon-treated water and the softening column-treated water were measured.

[4] = day 1, Example 10 (chloramine T 5 mg-Cl2/L) / Comparative Example 2 (NaClO 0.5 mg-Cl2/L), RO feed water pH 9.5
[5] = day 7, Example 10 (chloramine T 5 mg-Cl2/L) / Comparative Example 2 (NaClO 0.5 mg-Cl2/L), RO feed water pH 9.5
[6] = Example 11, chloramine T added 0.5 mg-Cl2/L (combined chlorine), SV 20 hr^-1, wastewater
[7] = Example 12, chloramine T added 0.8 mg-Cl2/L (combined chlorine), SV 20 hr^-1, wastewater
[8] = Example 15, SV through activated carbon column 10 hr^-1, combined chlorine 1 mg-Cl2/L, wastewater
[9] = Example 16, SV through activated carbon column 15 hr^-1, combined chlorine 1 mg-Cl2/L, wastewater
[10] = Example 1 (chloramine T, combined chlorine 5 mg-Cl2/L) / Comparative Example 1 (NaClO, free chlorine 0.5 mg-Cl2/L), SV 20 hr^-1
[11] = Example 10 (chloramine T, combined chlorine 5 mg-Cl2/L) / Comparative Example 2 (NaClO, free chlorine 0.5 mg-Cl2/L), wastewater TOC 20 mg/L, SV 20 hr^-1

Compound: Cc1ccc(S(=O)(=O)[N-]Cl)cc1.[Na+] [Chloramine T, sodium N-chloro-p-toluenesulfonamide trihydrate]
Reduction in flux through the RO membrane separator ([1]; Example 10, chloramine T 5 mg-Cl2/L, RO feed water pH 9.5): no reduction in flux
Flux [1, 4]: 1.0 m^3/m^2 · day
Flux ([1]; day 1, Reference Example 1, chloramine T 5 mg-Cl2/L, RO feed water pH 6): 0.98 m^3/m^2 · day
Flux ([1]; day 1, Reference Example 2, chloramine T 5 mg-Cl2/L, RO feed water pH 8.5): 0.99 m^3/m^2 · day
Flux [1, 5]: 0.95 m^3/m^2 · day
Flux ([1]; day 7, Reference Example 1, chloramine T 5 mg-Cl2/L, RO feed water pH 6): 0.98 m^3/m^2 · day
Flux ([1]; day 7, Reference Example 2, chloramine T 5 mg-Cl2/L, RO feed water pH 8.5): 0.97 m^3/m^2 · day
Flux ([1]; day 30, Example 10 (chloramine T 5 mg-Cl2/L) / Comparative Example 2 (NaClO 0.5 mg-Cl2/L), RO feed water pH 9.5): 0.95 m^3/m^2 · day
Flux ([1]; day 30, Reference Example 1, chloramine T 5 mg-Cl2/L, RO feed water pH 6): 0.97 m^3/m^2 · day
Flux ([1]; day 30, Reference Example 2, chloramine T 5 mg-Cl2/L, RO feed water pH 8.5): 0.97 m^3/m^2 · day
Flux ([1]; day 60, Example 10 (chloramine T 5 mg-Cl2/L), RO feed water pH 9.5): 0.93 m^3/m^2 · day
Flux ([1]; day 90, Example 10 (chloramine T 5 mg-Cl2/L), RO feed water pH 9.5): 0.93 m^3/m^2 · day
Viable cells at all measuring points (viable cells [2]; Example 1, combined chlorine 5 mg-Cl2/L, SV 20 hr^-1): no viable cells were detected
Viable cell count in activated carbon-treated water (viable cells [2]; Example 2, combined chlorine in activated carbon feed water 0.5 mg/L, SV 20 hr^-1): 4 × 10^3 cells/ml
Viable cell count in activated carbon-treated water (viable cells [2]; Example 3, combined chlorine in activated carbon feed water 0.8 mg/L, SV 20 hr^-1): 5 × 10^3 cells/ml
Viable cell count in activated carbon-treated water (viable cells [2]; Example 6, SV through activated carbon column 10 hr^-1, combined chlorine 1 mg-Cl2/L): 9 × 10^3 cells/mil
Viable cell count in activated carbon-treated water (viable cells [2]; Example 7, SV through activated carbon column 15 hr^-1, combined chlorine 1 mg-Cl2/L): 2 × 10^3 cells/mil
Viable cells at all measuring points (viable cells [3]; Example 10, combined chlorine 5 mg-Cl2/L, wastewater, SV 20 hr^-1): no viable cells were detected
Viable cell count, activated carbon-treated water (viable cells [3]; [6]): 3 × 10^4 cells/ml
Viable cell count, softened water (viable cells [3]; [6]): 4 × 10^5 cells/ml
Viable cell count, activated carbon-treated water (viable cells [3]; [7]): 6 × 10^3 cells/ml
Viable cell count, softened water (viable cells [3]; [7]): 8 × 10^4 cells/ml
Viable cell count, activated carbon-treated water (viable cells [3]; [8]): 9 × 10^4 cells/ml
Viable cell count, softened water (viable cells [3]; [8]): 2 × 10^6 cells/ml
Viable cell count, activated carbon-treated water (viable cells [3]; [9]): 2 × 10^5 cells/ml
Viable cell count, softened water (viable cells [3]; [9]): 7 × 10^6 cells/ml

Flux [1, 4]: 0.98 m^3/m^2 · day
Flux [1, 5]: 0.96 m^3/m^2 · day
Compound: OCl [NaClO, sodium hypochlorite, reference compound]
Viable cells detected in the activated carbon-treated water (viable cells [2]; Comparative Example 1, free chlorine 0.5 mg-Cl2/L, SV 20 hr^-1): 10^3 viable cells per milliliter
Viable cell count, RO feed water (viable cells [2]; [10]): 4 × 10^3 cells/ml
Viable cell count, RO-concentrated water (viable cells [2]; [10]): 2 × 10^5 cells/ml
Viable cell count, activated carbon-treated water (viable cells [2]; [10]): 5 × 10^3 cells/ml
Viable cells detected in the activated carbon-treated water (viable cells [3]; Comparative Example 2, free chlorine 0.5 mg-Cl2/L, wastewater): 10^5 viable cells per milliliter
Viable cells detected in the softening column-treated water (viable cells [3]; Comparative Example 2, free chlorine 0.5 mg-Cl2/L, wastewater, sampled before the addition of the alkali): 10^6 viable cells per milliliter
Viable cell count, activated carbon-treated water (viable cells [3]; [11]): 10^5 cells/ml
Viable cell count, softened water (viable cells [3]; [11]): 10^6 cells/ml
